Test results reported in US20230398130A1, “METHODS AND COMPOSITIONS FOR DIFFERENTIATING STEM CELLS” (Massachusetts Institute of Technology, priority 2020, published 2023).

What was measured:
[1] = tested on: ISC-enriched organoids; assay: Primary screen, 384-well 2.5-D organoid differentiation (ENR+CD, 6 days): basal lysozyme secretion (LYZ.NS); assay type: cell-based, murine; details: for Dose.FC.LYZ.NS / Z.LYZ.NS: primary screen; for Dose.FC.LYZ.NS: ENR+CD 6 days, FC vs plate median; for Z.LYZ.NS: standard z score of FC
Excerpt: (§1) High-throughput screening.

[2] = tested on: ISC-enriched organoids; assay: Primary screen, 384-well 2.5-D organoid differentiation (ENR+CD, 6 days): carbachol-induced lysozyme secretion (LYZ.S); assay type: cell-based, murine; details: for Dose.FC.LYZ.S: primary screen, ENR+CD 6 days, FC vs plate median
Excerpt: as §1

[3] = tested on: ISC-enriched organoids; assay: Primary screen, 384-well 2.5-D organoid differentiation (ENR+CD, 6 days, Target Selective Inhibitor Library, vs whole-plate median): ATP (CellTiter-Glo 3D, CTG); details: for Dose.FC.CTG / Z.CTG: primary screen; for Dose.FC.CTG: ENR+CD 6 days, FC vs plate median; for Z.CTG: standard z score of FC
[4] = dose 0.08 uM (1st of 4 lines per treatment; dose not printed in this part)
[5] = dose 0.40 uM (2nd of 4 lines per treatment; dose not printed in this part)
[6] = dose 2.00 uM (3rd of 4 lines per treatment; dose not printed in this part)
[7] = dose 10.00 uM (4th of 4 lines per treatment; dose not printed in this part)

## CC(C)N(CC[C@H](c1ccccc1)c1cc(CO)ccc1O)C(C)C [4CE°8C]
[1]; [4]
  SSMD.LYZ.NS_Rep (strictly standardized mean difference): 0.497
[1]; [5]
  SSMD.LYZ.NS_Rep (strictly standardized mean difference): 0.226
[1]; [6]
  SSMD.LYZ.NS_Rep (strictly standardized mean difference): 0.128
[1]; [7]
  SSMD.LYZ.NS_Rep (strictly standardized mean difference): −0.861
[1]; dose 0.08 uM
  Dose.FC.LYZ.NS: 0.069 log 2 fold change
  Z.LYZ.NS: 0.601
[1]; dose 0.40 uM
  Dose.FC.LYZ.NS: 0.047 log 2 fold change
  Z.LYZ.NS: 0.413
[1]; dose 2.00 uM
  Dose.FC.LYZ.NS: 0.016 log 2 fold change
  Z.LYZ.NS: 0.138
[1]; dose 10.00 uM
  Dose.FC.LYZ.NS: −0.095 log 2 fold change
  Z.LYZ.NS: −0.827
[2]; [4]
  SSMD.LYZ.S_Rep (strictly standardized mean difference): 0.194
  Z.LYZ.S (standard z score): 0.205
[2]; [5]
  SSMD.LYZ.S_Rep (strictly standardized mean difference): 0.053
  Z.LYZ.S (standard z score): 0.073
[2]; [6]
  SSMD.LYZ.S_Rep (strictly standardized mean difference): −0.217
  Z.LYZ.S (standard z score): −0.358
[2]; [7]
  SSMD.LYZ.S_Rep (strictly standardized mean difference): −0.707
  Z.LYZ.S (standard z score): −0.836
[2]; dose 0.08 uM
  Dose.FC.LYZ.S: 0.032 log 2 fold change
[2]; dose 0.40 uM
  Dose.FC.LYZ.S: 0.011 log 2 fold change
[2]; dose 2.00 uM
  Dose.FC.LYZ.S: −0.055 log 2 fold change
[2]; dose 10.00 uM
  Dose.FC.LYZ.S: −0.129 log 2 fold change
[3]; [4]
  SSMD.CTG_Rep (strictly standardized mean difference): −0.402
[3]; [5]
  SSMD.CTG_Rep (strictly standardized mean difference): 0.023
[3]; [6]
  SSMD.CTG_Rep (strictly standardized mean difference): −0.340
[3]; [7]
  SSMD.CTG_Rep (strictly standardized mean difference): −0.109
[3]; dose 0.08 uM
  Dose.FC.CTG: −0.111 log 2 fold change
  Z.CTG: −0.265
[3]; dose 0.40 uM
  Dose.FC.CTG: 0.007 log 2 fold change
  Z.CTG: 0.018
[3]; dose 2.00 uM
  Dose.FC.CTG: −0.162 log 2 fold change
  Z.CTG: −0.387
[3]; dose 10.00 uM
  Dose.FC.CTG: −0.039 log 2 fold change
  Z.CTG: −0.094

## O=C(O)c1ccc(N2C(=O)/C(=C\c3ccc(-c4ccc([N+](=O)[O-])cc4)o3)C=C2c2ccccc2)cc1 [4E1RCat]
[1]; [4]
  SSMD.LYZ.NS_Rep (strictly standardized mean difference): 0.883
[1]; [5]
  SSMD.LYZ.NS_Rep (strictly standardized mean difference): −0.121
[1]; [6]
  SSMD.LYZ.NS_Rep (strictly standardized mean difference): 0.437
[1]; [7]
  SSMD.LYZ.NS_Rep (strictly standardized mean difference): 0.053
[1]; dose 0.08 uM
  Dose.FC.LYZ.NS: 0.100 log 2 fold change
  Z.LYZ.NS: 0.874
[1]; dose 0.40 uM
  Dose.FC.LYZ.NS: −0.018 log 2 fold change
  Z.LYZ.NS: −0.154
[1]; dose 2.00 uM
  Dose.FC.LYZ.NS: 0.151 log 2 fold change
  Z.LYZ.NS: 1.316
[1]; dose 10.00 uM
  Dose.FC.LYZ.NS: 0.007 log 2 fold change
  Z.LYZ.NS: 0.062
[2]; [4]
  SSMD.LYZ.S_Rep (strictly standardized mean difference): 0.712
  Z.LYZ.S (standard z score): 0.690
[2]; [5]
  SSMD.LYZ.S_Rep (strictly standardized mean difference): 0.185
  Z.LYZ.S (standard z score): 0.247
[2]; [6]
  SSMD.LYZ.S_Rep (strictly standardized mean difference): 0.311
  Z.LYZ.S (standard z score): 0.316
[2]; [7]
  SSMD.LYZ.S_Rep (strictly standardized mean difference): 0.321
  Z.LYZ.S (standard z score): 0.530
[2]; dose 0.08 uM
  Dose.FC.LYZ.S: 0.107 log 2 fold change
[2]; dose 0.40 uM
  Dose.FC.LYZ.S: 0.038 log 2 fold change
[2]; dose 2.00 uM
  Dose.FC.LYZ.S: 0.049 log 2 fold change
[2]; dose 10.00 uM
  Dose.FC.LYZ.S: 0.082 log 2 fold change
[3]; [4]
  SSMD.CTG_Rep (strictly standardized mean difference): 0.790
[3]; [5]
  SSMD.CTG_Rep (strictly standardized mean difference): 0.559
[3]; [6]
  SSMD.CTG_Rep (strictly standardized mean difference): 0.022
[3]; [7]
  SSMD.CTG_Rep (strictly standardized mean difference): −0.026
[3]; dose 0.08 uM
  Dose.FC.CTG: 0.246 log 2 fold change
  Z.CTG: 0.587
[3]; dose 0.40 uM
  Dose.FC.CTG: 0.362 log 2 fold change
  Z.CTG: 0.864
[3]; dose 2.00 uM
  Dose.FC.CTG: 0.006 log 2 fold change
  Z.CTG: 0.015
[3]; dose 10.00 uM
  Dose.FC.CTG: −0.011 log 2 fold change
  Z.CTG: −0.026
